In publication PMC11949107, “Polyunsaturated fatty acids and their endocannabinoid-related metabolites activity at human TRPV1 and TRPA1 ion channels expressed in HEK-293 cells” (PeerJ, 2025):
Several values for one entry are separate records, joined by “and”; a condition that tells them apart may be missing. Equal values may be shown once.

Assays:
human TRPV1 = biological target: T1, human TRPV1 (Homo sapiens, UniProt Q8NER1); assay: Calcium 5 dye [Ca]i assay in HEK-293 Flp-In T-REx cells expressing TRPV1 (agonist response); type: cell-based; details: for Elevation of [Ca]i in HEK-293 TRPV1 cells compared with HEK-293 EV cells / Change of Ca5 fluorescence, Mean ± SEM, TRPV1 (10 µM): 10 µM; for Change of Ca5 fluorescence, Mean ± SEM, TRPV1 (10 µM): HEK-293 TRPV1 cells, percentage of predrug baseline; for Change in Ca5 fluorescence, individual experiments (CRC raw data): TRPV1 cells
T1 construct: Life Technologies (cells); host or cells: Flp-In T-REx HEK-293
T1 sequence (Q8NER1 whole entry): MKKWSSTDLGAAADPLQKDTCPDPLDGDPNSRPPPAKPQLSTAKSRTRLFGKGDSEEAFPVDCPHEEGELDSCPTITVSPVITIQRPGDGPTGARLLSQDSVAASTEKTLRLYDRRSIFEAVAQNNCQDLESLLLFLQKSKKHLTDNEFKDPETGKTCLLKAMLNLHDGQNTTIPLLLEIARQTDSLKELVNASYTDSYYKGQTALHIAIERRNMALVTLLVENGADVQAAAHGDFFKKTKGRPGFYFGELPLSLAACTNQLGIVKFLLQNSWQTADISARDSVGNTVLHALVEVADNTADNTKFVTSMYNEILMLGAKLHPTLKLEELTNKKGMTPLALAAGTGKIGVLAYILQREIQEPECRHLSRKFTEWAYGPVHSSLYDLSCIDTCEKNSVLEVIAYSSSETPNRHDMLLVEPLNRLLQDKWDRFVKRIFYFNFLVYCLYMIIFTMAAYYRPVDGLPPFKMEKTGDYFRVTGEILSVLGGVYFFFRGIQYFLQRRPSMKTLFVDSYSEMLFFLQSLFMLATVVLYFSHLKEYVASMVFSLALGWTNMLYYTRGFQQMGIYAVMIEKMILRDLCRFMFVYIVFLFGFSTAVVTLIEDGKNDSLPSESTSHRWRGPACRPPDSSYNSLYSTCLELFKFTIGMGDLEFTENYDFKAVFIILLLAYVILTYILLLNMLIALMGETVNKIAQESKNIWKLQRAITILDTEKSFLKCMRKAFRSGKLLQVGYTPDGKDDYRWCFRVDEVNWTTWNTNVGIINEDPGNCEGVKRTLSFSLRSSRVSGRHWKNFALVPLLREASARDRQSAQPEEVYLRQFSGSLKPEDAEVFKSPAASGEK
Protocol: (§1) The cells were incubated in a 5% CO2 humidified atmosphere at 37 °C. Upon reaching approximately 90% confluence in 75 cm^2 flasks, they were trypsinized and transferred to poly-D-lysine coated 96-well plates (Corning, Castle Hill, NSW, Australia) in L-15 medium supplemented with 1% FBS, 100 U penicillin and 100 µg streptomycin ml^−1 (1% P/S), and 15 mM glucose (80 µL volume per well). After an overnight incubation (maximum of 16 h) in humidified room air at 37 °C, TRPV1 and TRPA1 receptor expression was induced 4 h before experimentation by adding to each well 10 µL tetracycline solution to a final concentration of 1 µg ml^−1.
(§2) Intracellular calcium [Ca]i levels were assessed using the calcium 5 kit from Molecular Devices (# R8186, Sunnyvale, CA, USA) on a FlexStation 3 Microplate Reader (Molecular Devices, Sunnyvale, CA, USA). […] Probenecid (cat # 50027; Biotium) which helps to prevent expulsion of calcium indicator from the cells was added to a final concentration of 1.25 mM. 90 µL of the dye were loaded into each well of the plate and incubated for 1 h before reading in the FlexStation 3 at 37 °C. Fluorescence was recorded every 2 s (λ excitation = 485 nm, λ emission = 525 nm) for 5 min. After 1 min of baseline recording, 20 µL of the drug, dissolved in HBSS with 1% dimethyl sulfoxide (DMSO) (cat # D2650; Sigma-Aldrich, Melbourne, Australia) was added (final DMSO concentration was 0.1% in well).
(§3) The response to agonists was expressed as a percentage change from the average baseline measurement taken for 60s before adding drug. Changes in fluorescence resulting from the addition of solvent were subtracted before normalization to baseline. Concentration–response curves (CRC), Emax and EC50 values were determined using a three-parameter logistic equation (GraphPad Prism, San Diego, CA, USA). […] Potencies were expressed as pEC50, which is the negative log of EC50 in moles per litre (Molar). Where appropriate, unpaired Student’s t-test were used to compare the responses of individual compounds in different conditions, while a one-way ANOVA followed by Dunnett’s multiple comparisons test was used to assess potential differences in responses elicited by a range of compounds. P < 0.05 was considered statistically significant.

human TRPA1 = biological target: T2, human TRPA1 (Homo sapiens, UniProt O75762); assay: Calcium 5 dye [Ca]i assay in HEK-293 Flp-In T-REx cells expressing TRPA1 (agonist response); type: cell-based; details: for Elevation of [Ca]i in HEK-293 TRPA1 cells compared with HEK-293 EV cells: 10 µM (cinnamaldehyde 300 µM); for Change of Ca5 fluorescence, Mean ± SEM, TRPA1 (10 µM): HEK-293 TRPA1 cells, percentage of predrug baseline; for TRPA1 activation at the highest concentration tested / TRPA1 response compared with the highest concentration of cinnamaldehyde (300 µM) / TRPA1 response, Mean± SEM (N): 30 µM; for TRPA1 response, Mean± SEM (N): one-way ANOVA comparison with cinnamaldehyde 300 µM; for [Ca]i response (change in fluorescence), individual replicates: sheet Figure 3(E); for Change in Ca5 fluorescence, individual experiments (CRC raw data): TRPA1 cells
T2 construct: Life Technologies (cells); host or cells: Flp-In T-REx HEK-293
T2 sequence (O75762 whole entry): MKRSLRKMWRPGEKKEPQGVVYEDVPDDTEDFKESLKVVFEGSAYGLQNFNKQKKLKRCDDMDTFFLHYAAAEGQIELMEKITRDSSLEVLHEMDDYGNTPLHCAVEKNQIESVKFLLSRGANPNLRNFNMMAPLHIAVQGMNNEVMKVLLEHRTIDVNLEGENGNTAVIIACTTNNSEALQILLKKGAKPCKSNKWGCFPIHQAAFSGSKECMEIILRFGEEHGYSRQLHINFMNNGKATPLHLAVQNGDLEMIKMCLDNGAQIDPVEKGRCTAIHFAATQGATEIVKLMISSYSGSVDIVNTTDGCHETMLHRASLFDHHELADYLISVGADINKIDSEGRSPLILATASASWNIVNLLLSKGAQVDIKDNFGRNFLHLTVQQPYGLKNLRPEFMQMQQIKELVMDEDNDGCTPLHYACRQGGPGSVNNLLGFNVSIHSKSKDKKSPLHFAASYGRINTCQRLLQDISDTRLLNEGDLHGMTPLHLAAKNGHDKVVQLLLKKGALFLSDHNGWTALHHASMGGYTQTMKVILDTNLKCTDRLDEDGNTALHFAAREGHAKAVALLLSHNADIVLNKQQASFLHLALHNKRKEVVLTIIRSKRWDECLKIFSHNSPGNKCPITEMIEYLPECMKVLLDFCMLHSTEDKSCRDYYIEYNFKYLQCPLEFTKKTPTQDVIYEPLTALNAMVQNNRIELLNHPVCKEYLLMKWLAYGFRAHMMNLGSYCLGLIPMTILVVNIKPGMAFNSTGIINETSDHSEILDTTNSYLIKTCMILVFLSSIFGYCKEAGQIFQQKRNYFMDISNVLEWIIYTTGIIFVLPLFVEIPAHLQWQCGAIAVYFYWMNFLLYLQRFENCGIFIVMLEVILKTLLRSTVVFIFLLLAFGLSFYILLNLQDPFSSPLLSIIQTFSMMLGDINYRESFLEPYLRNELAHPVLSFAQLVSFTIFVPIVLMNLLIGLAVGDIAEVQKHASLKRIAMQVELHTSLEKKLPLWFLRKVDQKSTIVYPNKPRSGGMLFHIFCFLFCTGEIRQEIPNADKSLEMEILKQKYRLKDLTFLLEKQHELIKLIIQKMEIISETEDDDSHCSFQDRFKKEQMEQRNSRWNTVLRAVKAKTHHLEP
Protocol: as §1, §2, §3

HEK-293 EV cells = assay: Calcium 5 dye [Ca]i assay in HEK-293 empty vector (EV) cells; type: cell-based, human; details: 10 µM; HEK-293 EV cells; percentage of predrug baseline
Protocol: as §1
Intracellular calcium [Ca]i levels were assessed using the calcium 5 kit from Molecular Devices (# R8186, Sunnyvale, CA, USA) on a FlexStation 3 Microplate Reader (Molecular Devices, Sunnyvale, CA, USA). […] 90 µL of the dye were loaded into each well of the plate and incubated for 1 h before reading in the FlexStation 3 at 37 °C. […] After 1 min of baseline recording, 20 µL of the drug, dissolved in HBSS with 1% dimethyl sulfoxide (DMSO) (cat # D2650; Sigma-Aldrich, Melbourne, Australia) was added (final DMSO concentration was 0.1% in well).
as §3

Row | Compound | Elevation of [Ca]i in HEK-293 TRPV1 cells compared with HEK-293 EV cells (human TRPV1) | Change of Ca5 fluorescence, Mean ± SEM, TRPV1 (10 µM) (human TRPV1) | Change in Ca5 fluorescence, individual experiments (CRC raw data) (human TRPV1; log concentration -4.52288 (M)) | Change in Ca5 fluorescence, individual experiments (CRC raw data) (human TRPV1; log concentration -5 (M)) | Change in Ca5 fluorescence, individual experiments (CRC raw data) (human TRPV1; log concentration -5.52288 (M)) | Change in Ca5 fluorescence, individual experiments (CRC raw data) (human TRPV1; log concentration -6 (M)) | Change in Ca5 fluorescence, individual experiments (CRC raw data) (human TRPV1; log concentration -6.52288 (M)) | Change in Ca5 fluorescence, individual experiments (CRC raw data) (human TRPV1; log concentration -7 (M)) | Elevation of [Ca]i in HEK-293 TRPA1 cells compared with HEK-293 EV cells (human TRPA1) | Change of Ca5 fluorescence, Mean ± SEM, TRPA1 (10 µM) (human TRPA1) | TRPA1 activation at the highest concentration tested (human TRPA1) | TRPA1 response compared with the highest concentration of cinnamaldehyde (300 µM) (human TRPA1) | TRPA1 response, Mean± SEM (N) (human TRPA1) | Change of Ca5 fluorescence, Mean ± SEM, EV (10 µM) (HEK-293 EV cells) | other results
1 | CCCCC/C=C\C/C=C\C/C=C\C/C=C\CCCC(=O)NCCO [AEA, anandamide] | significantly greater | 188 ± 36 % | 110.333 and 353.13 and 181.656 and 93.5107 and 312.513 and 324.288 | 107.669 and 250.336 and 142.845 and 78.9426 and 274.449 and 272.34 | 104.24 and 119.191 and 18.6933 and 67.9069 and 43.3725 and 39.8495 | 85.0507 and 18.1779 and 2.315 and 21.1299 and 4.82 and -0.1525 | 25.9314 and 10.5855 and 2.141 and 2.529 and 1.6051 and -0.1939 | 9.794 and 11.1798 and 5.889 and 1.561 and 3.7 and 2.135 | did not produce a change | 78 ± 40% | activated TRPA1 | significantly smaller | 206 ± 60 | 10 ± 2% | EC50 (human TRPV1): 7.94 µM; Maximal TRPV1 response compared with the highest concentration of capsaicin (human TRPV1; 30 µM vs capsaicin 10 µM): did not differ; Emax at 30 µM (human TRPV1; HEK293, read-out: Emax ± SEM % TRPV1 (30 µM)): 304 ± 55%; Emax at 30 µM (human TRPA1; HEK293, read-out: Emax ± SEM % TRPA1 (30 µM)): 206 ± 60%; [Ca]i response (change in fluorescence), individual replicates (human TRPA1; concentration -4.52288 (log)): 380.839 and 400.035 and 86.0795 and 138.88 and 106.55 and 121.01; [Ca]i response (change in fluorescence), individual replicates (human TRPA1; concentration -5 (log)): 270.188 and 95.8276 and 43.3617 and 6.8753 and 19.4528 and 34.7169; [Ca]i response (change in fluorescence), individual replicates (human TRPA1; concentration -5.52288 (log)): 11.1594 and 5.44 and 3.581 and 5.875; [Ca]i response (change in fluorescence), individual replicates (human TRPA1; concentration -6 (log)): 11.3796 and 3.6077 and 1.689 and 3.893 and 4.817 and 2.419; [Ca]i response (change in fluorescence), individual replicates (human TRPA1; concentration -6.52288 (log)): 9.429 and 4.648 and 1.238 and 3.414; [Ca]i response (change in fluorescence), individual replicates (human TRPA1; concentration -7 (log)): 11.2147 and 3.27 and 3.337 and 2.558
2 | CC/C=C\C/C=C\C/C=C\C/C=C\C/C=C\CCCC(=O)NCCO [EPEA, eicosapentaenoyl ethanolamide] | did not produce a notable change | 15 ± 8% | 12.8698 and 124.435 and 117.092 and 13.2242 and 28.647 and 8.814 | 6.443 and 53.2228 and 9.9712 and 11.9185 and 2.5776 and 3.793 | 5.664 and 10.8694 and 3.209 and 12.2234 and 1.072 and 3.982 | 2.913 and 5.488 and 1.312 and 9.151 and 2.704 and 1.489 | 3.773 and 2.311 and 2.08 and 9.31 and 0.4729 and 1.052 | 7.0578 and 1.12 and 6.0854 and 9.074 and 2.61 and 2.864 | did not produce a change | 50 ± 40% | activated TRPA1 | significantly smaller | 274± 60 | 3 ± 1% | TRPV1 response, Mean± SEM (N) (human TRPV1; 30 µM, one-way ANOVA comparison with capsaicin 10 µM): 51± 56; Emax ± SEM % TRPV1 (30 µM) (human TRPV1; highest tested concentration (30 µM) or derived from concentration-response curves (DHEA, AEA, NADA, capsaicin)): 51 ± 22%; Emax ± SEM % TRPA1 (30 µM) (human TRPA1; highest tested concentration (30 µM) or derived from concentration-response curves (cinnamaldehyde)): 274 ± 27%; Change in Ca5 fluorescence, individual experiments (CRC raw data) (human TRPA1; log concentration -4.52288 (M)): 345.33 and 330.592 and 234.198 and 185.482 and 229.324 and 316.639; Change in Ca5 fluorescence, individual experiments (CRC raw data) (human TRPA1; log concentration -5 (M)): 250.67 and 8.984 and 4.299 and 4.23 and 22.2267 and 8.362; Change in Ca5 fluorescence, individual experiments (CRC raw data) (human TRPA1; log concentration -5.52288 (M)): 6.789 and 4.391 and 2.799 and 3.328 and 5.534 and 8.248; Change in Ca5 fluorescence, individual experiments (CRC raw data) (human TRPA1; log concentration -6 (M)): 2.3186 and 6.477 and 1.9747 and 2.489 and 1.415 and 7.402; Change in Ca5 fluorescence, individual experiments (CRC raw data) (human TRPA1; log concentration -6.52288 (M)): 2.468 and 7.816 and 1.613 and 1.7019 and 8.366 and 8.252; Change in Ca5 fluorescence, individual experiments (CRC raw data) (human TRPA1; log concentration -7 (M)): 1.245 and 5.751 and 2.391 and 4.163 and 4.153 and 8.202
